Common to all, as to test: Gene panel canonical junction qPCR assay, decrease in CJ mRNA, Table 3
Common to all, as to format: cell-based
What all share (conditions): decrease in canonical junction (CJ) mRNA, gene panel qPCR, Table 3
(In general: Quantitative PCR measures a nucleic acid by following its amplification.)

For experiment [1], the system named is MYB mRNA. An outline of the steps: (§1)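 A673 (DMEM, 10% FBS, 15,000 cells/well) or K562 (IMDM, 10% FBS) cells treated 24 h at 37 °C with 11-point 3-fold dilutions, top 10 uM, DMSO ≤0.25%. Canonical exon-exon junction mRNA measured by RT-qPCR, normalized to GAPDH, GUSB or PPIA and DMSO (ΔΔCt); IC50 from 4-parameter logistic fit.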
The test system of experiment [2] is SMN2 mRNA. An outline of the steps:
as §1

Experiment [3] relates to HTT mRNA. Put shortly: as §1

SMILES strings stand for the structures.

Broadly, the IC50 is the concentration at which inhibition is half-maximal. A lower IC50 goes with greater potency in that assay. For the compound `CN[C@H]1C[C@@H](C)N(c2ccc(C(=O)Nc3cc(F)c4nc(C)cn4c3)c3nn(C)cc23)C1` (single isomer, unassigned) [Compound 128], the IC50 in experiment [1] was 100 to 1000 nM; in experiment [2], under 100 nM; in experiment [3], 100 to 1000 nM.
In the case of `CN[C@H]1CCN(c2ccc(C(=O)Nc3cc(F)c4nc(C)cn4c3)c3nn(C)cc23)[C@H]1C` (single isomer, unassigned) [Compound 152], the concentration for half-maximal inhibition (IC50) in experiment [1] is 1000 to 10000 nM; in experiment [2] it was 100 to 1000 nM; in experiment [3], over 10000 nM.
Taken in the same sequence, the figures for `CN[C@@H]1CCN(c2ccc(C(=O)Nc3cc(F)c4nc(C)cn4c3)c3nn(C)cc23)[C@@H]1C` (single isomer, unassigned) [Compound 153] were under 100 nM, under 100 nM and 100 to 1000 nM.
For `CN[C@H]1CCN(c2ccc(C(=O)Nc3cc(F)c4nc(C)cn4c3)c3nn(C)cc23)[C@@H]1C` (single isomer, unassigned) [Compound 154], the IC50 was 100 to 1000 nM in experiment [1], under 100 nM in experiment [2] and over 10000 nM in experiment [3].
Turning to `COCCN[C@@H]1CCN(c2ccc(C(=O)Nc3cc(F)c4nc(C)cn4c3)c3nn(C)cc23)C1` [Compound 113, N-(8-fluoro-2-methyl-imidazo[1,2-a]pyridin-6-yl)-4-[(3R)-3-(2-methoxyethylamino)pyrrolidin-1-yl]-2-methyl-indazole-7-carboxamide], the figures for the IC50 in experiment [1], in experiment [2] and in experiment [3] were 100 to 1000 nM, under 100 nM and over 10000 nM, respectively.
In the same order, the values of `COCC1(N[C@H]2CCN(c3ccc(C(=O)Nc4cc(F)c5nc(C)cn5c4)c4nn(C)cc34)C2)CC1` [Compound 118, (S)—N-(8-fluoro-2-methylimidazo[1,2-a]pyridin-6-yl)-4-(3-((1-(methoxymethyl)cyclopropyl)amino)pyrrolidin-1-yl)-2-methyl-2H-indazole-7-carboxamide] are 1000 to 10000 nM, 100 to 1000 nM and 1000 to 10000 nM.
For `COCC1(N[C@@H]2CCN(c3ccc(C(=O)Nc4cc(F)c5nc(C)cn5c4)c4nn(C)cc34)C2)CC1` [Compound 119, (R)—N-(8-fluoro-2-methylimidazo[1,2-a]pyridin-6-yl)-4-(3-((1-(methoxymethyl)cyclopropyl)amino)-pyrrolidin-1-yl)-2-methyl-2H-indazole-7-carboxamide], the IC50 in experiment [1] lay in the range of 100 to 1000 nM; in experiment [2], 100 to 1000 nM; in experiment [3], 1000 to 10000 nM.
Take `CN[C@@H]1C[C@@H](C)N(c2ccc(C(=O)Nc3cc(F)c4nc(C)cn4c3)c3nn(C)cc23)C1` [Compound 129, N-(8-fluoro-2-methyl-imidazo[1,2-a]pyridin-6-yl)-2-methyl-4-[(2R,4R)-2-methyl-4-(methylamino)pyrrol-idin-1-yl]indazole-7-carboxamide]: the IC50 in experiment [1] was 100 to 1000 nM; in experiment [2] it was under 100 nM; in experiment [3], 1000 to 10000 nM.
Regarding `CCN[C@@H]1CCN(c2cc(O)c(C(=O)Nc3cc(F)c4nc(C)cn4c3)c3nn(C)cc23)C1` [Compound 144, 4-[3-(ethylamino)pyrrolidin-1-yl]-N-(8-fluoro-2-methyl-imidazo[1,2-a]pyridin-6-yl)-6-hydroxy-2-methyl-indazole-7-carboxamide], the IC50 in experiment [1] was under 100 nM; in experiment [2] it was under 100 nM; in experiment [3] it was over 10000 nM.
As for `CN[C@H]1CCN(c2c(O)cc(C(=O)Nc3cc(F)c4nc(C)cn4c3)c3nn(C)cc23)C1` [Compound 149, N-(8-fluoro-2-methyl-imidazo[1,2-a]pyridin-6-yl)-5-hydroxy-2-methyl-4-[(3S)-3-(methylamino)pyrrolidin-1-yl]-indazole-7-carboxamide], the figures for the IC50 in experiment [1], in experiment [2] and in experiment [3] were 1000 to 10000 nM, 100 to 1000 nM and 1000 to 10000 nM, respectively.
With `CN[C@@H]1CCN(c2ccc(C(=O)Nc3cc(F)c4nc(C)cn4c3)c3nn(C)cc23)[C@H]1C` [Compound 155, N-(8-fluoro-2-methylimidazo-[1,2-a]pyridin-6-yl)-2-methyl-4-[(2S,3R)-2-methyl-3-(methylamino)-pyrrolidin-1-yl]indazole-7-carboxamide], the IC50 is 1000 to 10000 nM in experiment [1], 1000 to 10000 nM in experiment [2] and over 10000 nM in experiment [3].
`Cc1cn2cc(NC(=O)c3c(F)cc(N4CC[C@H](NCC56CC(CO5)C6)C4)c4cn(C)nc34)cc(F)c2n1` [Compound 157, 6-fluoro-N-(8-fluoro-2-methyl-imidazo[1,2-a]pyridin-6-yl)-2-methyl-4-[(3S)-3-(2-oxabicyclo[2.1.1]hexan-1-ylmethylamino)pyrrolidin-1-yl]indazole-7-carboxamide]: the IC50 was 100 to 1000 nM in experiment [1], under 100 nM in experiment [2] and over 10000 nM in experiment [3].
In the same order, the values of `CN[C@H]1CCN(c2ccc(C(=O)Nc3cc(F)c4nc(C)cn4c3)c3c2nnn3C)C1` [Compound 160, N-(8-fluoro-2-methyl-imidazo[1,2-a]pyridin-6-yl)-3-methyl-7-[(3S)-3-(methylamino)-pyrrolidin-1-yl]benzotriazole-4-carboxamide] are over 10000 nM, over 10000 nM and over 10000 nM.
Consider `CN[C@H]1CCN(c2ccc(C(=O)Nc3cc(F)c4nc(C)cn4c3)c3nn(C)nc23)C1` [Compound 163, (S)-N-(8-fluoro-2-methylimidazo-[1,2-a]pyridin-6-yl)-2-methyl-7-(3-(methylamino)pyrrolidin-1-yl)-2H-benzo[d]-[1,2,3]triazole-4-carboxamide], for which the half-inhibitory concentration (IC50) was 100 to 1000 nM in experiment [1], under 100 nM in experiment [2] and 100 to 1000 nM in experiment [3].
Turning to `CN[C@H]1CCN(c2ccc(C(=O)Nc3cc(F)c4nc(C)cn4c3)c3nnn(C)c23)C1` [Compound 166, (S)-N-(8-fluoro-2-methylimidazo-[1,2-a]pyridin-6-yl)-1-methyl-7-(3-(methylamino)pyrrolidin-1-yl)-1H-benzo[d]-[1,2,3]triazole-4-carboxamide], the IC50 in experiment [1] was 100 to 1000 nM; in experiment [2] it was under 100 nM; in experiment [3], over 10000 nM.
Take `CCNC1CCN(c2ccc(C(=O)Nc3cc(OC)c4nc(C)cn4c3)c3nn(C)cc23)CC1` [Compound 175, 4-(4-(ethylamino)piperidin-1-yl)-N-(8-methoxy-2-methyl-imidazo-[1,2-a]pyridin-6-yl)-2-methyl-2H-indazole-7-carboxamide]: the 50% inhibitory concentration (IC50) in experiment [1] is 100 to 1000 nM; in experiment [2] it was under 100 nM; in experiment [3], 100 to 1000 nM.
As for `CCNC1CCN(c2ccc(C(=O)Nc3ccc4nc(C)cn4c3)c3nn(C)cc23)CC1` [Compound 176, 4-[4-(ethylamino)-1-piperidyl]-2-methyl-N-(2-methylimidazo[1,2-a]pyridin-6-yl)-indazole-7-carboxamide], the IC50 in experiment [1] is 100 to 1000 nM; in experiment [2], under 100 nM; in experiment [3], 1000 to 10000 nM.
`CCNC1CCN(c2ccc(C(=O)Nc3cc(F)c4nc(C(C)C)cn4c3)c3nn(C)cc23)CC1` [Compound 177, 4-[4-(ethylamino)-1-piperidyl]-N-(8-fluoro-2-isopropyl-imidazo[1,2-a]pyridin-6-yl)-2-methyl-indazole-7-carboxamide]: the IC50 in experiment [1] is over 10000 nM; in experiment [2], over 10000 nM; in experiment [3], 1000 to 10000 nM.
Turning to `CCNC1CCN(c2ccc(C(=O)Nc3cc4cn(C)nc4cc3OC)c3[nH]ccc23)CC1` [Compound 178, 4-[4-(ethylamino)-1-piperidyl]-N-(6-methoxy-2-methyl-indazol-5-yl)-1H-indole-7-carboxamide], the results for the concentration for half-maximal inhibition (IC50) in experiment [1], in experiment [2] and in experiment [3] were over 10000 nM, 1000 to 10000 nM and over 10000 nM, respectively.
On to `CNC1(C)CCN(c2cc(F)c(C(=O)Nc3cc(F)c4nc(C)cn4c3)c3nn(C)cc23)CC1` [Compound 179, 6-fluoro-N-(8-fluoro-2-methyl-imidazo[1,2-a]pyridin-6-yl)-2-methyl-4-[4-methyl-4-(methylamino)-1-piperidyl]indazole-7-carboxamide], for which the IC50 in experiment [1], in experiment [2] and in experiment [3] was under 100 nM throughout.
With `CNC1(C)CCN(c2cc(F)c(C(=O)Nc3cn4cc(C)nc4c(F)c3OC)c3nn(C)cc23)CC1` [Compound 180, 6-fluoro-N-(8-fluoro-7-methoxy-2-methyl-imidazo[1,2-a]pyridin-6-yl)-2-methyl-4-[4-methyl-4-(methylamino)-1-piperidyl]indazole-7-carboxamide], the IC50 in experiment [1], in experiment [2] and in experiment [3] was under 100 nM each time.
Take `CCNC1CCN(c2ccc(C(=O)Nc3cn4cc(C)nc(C)c4n3)c3nn(C)cc23)CC1` [Compound 181, N-(6,8-dimethylimidazo [1,2-a]pyrazin-2-yl)-4-[4-(ethylamino)-1-piperidyl]-2-methyl-indazole-7-carboxamide]: the half-inhibitory concentration (IC50) in experiment [1] was 100 to 1000 nM; in experiment [2] it was under 100 nM; in experiment [3], 100 to 1000 nM.
Consider `CCNC1CCN(c2ccc(C(=O)Nc3cc(F)c4nn(C)cc4c3)c3nn(C)cc23)CC1` [Compound 182, 4-(4-(ethylamino)piperidin-1-yl)-N-(7-fluoro-2-methyl-2H-indazol-5-yl)-2-methyl-2H-indazole-7-carboxamide], for which the IC50 was under 100 nM in experiment [1], under 100 nM in experiment [2] and 1000 to 10000 nM in experiment [3].
For the compound `Cc1cn2cc(NC(=O)c3ccc(N4CCC(NC5CC5)CC4)c4cc(C)oc34)cc(F)c2n1` [Compound 185, 4-[4-(cyclopropyl-amino)-1-piperidyl]-N-(8-fluoro-2-methyl-imidazo[1,2-a]pyridin-6-yl)-2-methyl-benzofuran-7-carboxamide], the results for the 50% inhibitory concentration (IC50) in experiment [1], in experiment [2] and in experiment [3] were 100 to 1000 nM, under 100 nM and 1000 to 10000 nM, respectively.

The record behind these values is patent publication US20260285853A1, “COMPOUNDS AND METHODS FOR MODULATING SPLICING” (REMIX THERAPEUTICS INC., priority 2023, published 2026).
